Laboratory results published in doi:10.1101/530550v1 (biorxiv, 2019).

Test system: 2,5DHP dioxygenase (PicD)
Assay: spectrophotometric […],5DHP disappearance at […] nm
Assay type: biochemical, Alcaligenes faecalis
Conditions: 1 mM Fe2+; 50 mM PBS pH 7.0; 25 °C

Compound: Oc1ccc(O)nc1 [2,5DHP, 2,5-dihydroxypyridine]
- Km: 65.7 ± 6.27 µM
